Measurements taken from patent publication US20240270762A1, “PENICILLIN-BINDING PROTEIN INHIBITORS” (priority 2021, published 2024).
Values after ≈ are worked out from the molar mass of the structure shown.

Legend:
[1] = molecular target: T1, PBP3 from Escherichia coli (K-12) (Escherichia coli, UniProt P0AD68); assay: Bocillin-FL fluorescence polarization competition binding, E. coli PBP3
T1 construct: made in house
Outline: (§1)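 Purified PBP was preincubated with inhibitor (E. coli PBP3 1.5 μM, 30 min; P. aeruginosa PBP3 0.75 μM, A. baumannii PBP3 0.2 μM and PBP1a 1 μM, 15 min), then Bocillin-FL (0.1 μM; 0.05 μM for PBP1a) added and FP read up to 60 min. EC50 = 50% loss of bound probe.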

[2] = molecular target: T2, PBP3 from Pseudomonas aeruginosa (PAO1) (Pseudomonas aeruginosa, UniProt G3XD46); assay: Bocillin-FL fluorescence polarization competition binding, P. aeruginosa PBP3; conditions: Binding affinity to P. aeruginosa PBP3; fluorescence polarization competition binding assay using Bocillin-FL; read-out: P. aeruginosa PBP3 Potency
T2 construct: made in house
T2 sequence (G3XD46 whole entry): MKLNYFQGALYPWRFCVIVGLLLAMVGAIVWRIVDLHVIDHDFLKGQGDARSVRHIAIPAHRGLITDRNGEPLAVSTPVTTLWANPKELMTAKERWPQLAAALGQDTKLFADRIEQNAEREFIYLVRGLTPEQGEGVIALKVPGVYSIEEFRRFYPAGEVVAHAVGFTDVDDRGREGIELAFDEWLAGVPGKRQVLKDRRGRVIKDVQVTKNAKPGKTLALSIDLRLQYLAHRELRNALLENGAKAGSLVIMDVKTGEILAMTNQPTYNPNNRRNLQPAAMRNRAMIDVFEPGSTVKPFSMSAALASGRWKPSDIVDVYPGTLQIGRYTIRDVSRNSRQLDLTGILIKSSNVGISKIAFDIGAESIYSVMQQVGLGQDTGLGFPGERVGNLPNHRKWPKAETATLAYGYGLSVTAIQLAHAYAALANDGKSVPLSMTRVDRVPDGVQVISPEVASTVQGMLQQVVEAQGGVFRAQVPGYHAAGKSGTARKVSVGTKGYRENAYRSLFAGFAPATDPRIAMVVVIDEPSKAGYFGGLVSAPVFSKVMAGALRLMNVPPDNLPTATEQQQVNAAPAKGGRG
Outline: as §1

P. aeruginosa ATCC 27853 = assay: microbe, parasite or virus in culture; type: cell-based; conditions: Pseudomonas aeruginosa, ATCC27853, read-out: Minimum inhibitory concentration, P. aeruginosa ATCC 27853
P. aeruginosa CDC-0054 = assay: microbe, parasite or virus in culture; type: cell-based; conditions: Pseudomonas aeruginosa, CDC0054, read-out: Minimum inhibitory concentration, P. aeruginosa CDC-0054
P. aeruginosa CDC-0090 = assay: microbe, parasite or virus in culture; type: cell-based; conditions: Pseudomonas aeruginosa, CDC0090, read-out: Minimum inhibitory concentration, P. aeruginosa CDC-0090
P. aeruginosa CDC-0095 = assay: microbe, parasite or virus in culture; type: cell-based; conditions: Pseudomonas aeruginosa, CDC0095, read-out: Minimum inhibitory concentration, P. aeruginosa CDC-0095
A. baumannii CDC-0033 = assay: microbe, parasite or virus in culture; type: cell-based; conditions: Acinetobacter baumannii, CDC0033, read-out: MIC, A. baumannii CDC-0033
A. baumannii CDC-0083 = assay: microbe, parasite or virus in culture; type: cell-based; conditions: Acinetobacter baumannii, CDC0083, read-out: MIC, A. baumannii CDC-0083
[3] = tested on: B. thailandensis ATCC 700388; assay: microbe, parasite or virus in culture; type: cell-based; conditions: Burkholderia thailandensis, ATCC700388, read-out: Minimum inhibitory concentration (MIC), B. thailandensis ATCC 700388
[4] = tested on: B. humptydooensis ATCC BAA-2767; assay: microbe, parasite or virus in culture; type: cell-based; conditions: Burkholderia humptydooensis, ATCCBAA2767, read-out: Minimum inhibitory concentration (MIC), B. humptydooensis ATCC BAA-2767
P. aeruginosa CDC-0110 = assay: microbe, parasite or virus in culture; type: cell-based; conditions: Pseudomonas aeruginosa, CDC0110, read-out: Minimum inhibitory concentration, P. aeruginosa CDC-0110
[5] = tested on: N. gonorrhoeae ATCC 49226; assay: Liquid broth MIC in Fastidious broth; conditions: Neisseria gonorrhoeae, ATCC49226, read-out: Minimum Inhibitory Concentration, ATCC 49226
N. gonorrhoeae WHO G = assay: Liquid broth MIC in Fastidious broth; conditions: Neisseria gonorrhoeae, read-out: Minimum Inhibitory Concentration, WHO G
N. gonorrhoeae WHO X = assay: Liquid broth MIC in Fastidious broth; conditions: Neisseria gonorrhoeae, read-out: Minimum Inhibitory Concentration, WHO X
N. gonorrhoeae CDC-0197 = assay: Liquid broth MIC in Fastidious broth; conditions: Neisseria gonorrhoeae, CDC0197, read-out: Minimum Inhibitory Concentration, CDC-0197

T1 sequence (P0AD68 1-577): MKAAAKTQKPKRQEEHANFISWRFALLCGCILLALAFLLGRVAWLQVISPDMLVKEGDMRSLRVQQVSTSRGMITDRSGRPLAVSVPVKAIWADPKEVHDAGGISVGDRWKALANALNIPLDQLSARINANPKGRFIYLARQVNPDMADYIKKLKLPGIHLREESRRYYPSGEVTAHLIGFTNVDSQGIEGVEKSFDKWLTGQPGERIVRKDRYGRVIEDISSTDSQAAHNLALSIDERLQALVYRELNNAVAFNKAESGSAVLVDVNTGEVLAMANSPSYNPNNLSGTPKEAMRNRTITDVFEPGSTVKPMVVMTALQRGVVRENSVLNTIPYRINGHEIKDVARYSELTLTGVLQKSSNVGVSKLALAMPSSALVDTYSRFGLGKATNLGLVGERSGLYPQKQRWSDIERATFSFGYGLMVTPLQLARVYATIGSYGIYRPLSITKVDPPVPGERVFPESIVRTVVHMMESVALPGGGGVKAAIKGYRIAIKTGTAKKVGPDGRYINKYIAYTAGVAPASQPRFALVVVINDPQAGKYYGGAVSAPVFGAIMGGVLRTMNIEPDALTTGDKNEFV

Structure (SMILES) | EC50 [1] [µM] | IC50 [2] [µM] | MIC (P. aeruginosa ATCC 27853) [µg/mL] | MIC (P. aeruginosa CDC-0054) [µg/mL] | MIC (P. aeruginosa CDC-0090) [µg/mL] | MIC (P. aeruginosa CDC-0095) [µg/mL] | MIC (A. baumannii CDC-0033) [µg/mL] | MIC (A. baumannii CDC-0083) [µg/mL] | MIC [3] [µg/mL] | MIC [4] [µg/mL] | MIC (P. aeruginosa CDC-0110) [µg/mL] | MIC [5] [µg/mL] | MIC (N. gonorrhoeae WHO G) [µg/mL] | MIC (N. gonorrhoeae WHO X) [µg/mL] | MIC (N. gonorrhoeae CDC-0197) [µg/mL]
O=C(NCCS(=O)(=O)N1CCN(C(=O)N[C@@H](C(=O)N[C@H]2Cc3ccc(F)c(C(=O)O)c3OB2O)c2cc(F)c(O)c(O)c2Cl)C1=O)Nc1cccnc1 [Example 267, (R)-3-((R)-2-(2-chloro-5-fluoro-3,4-dihydroxyphenyl)-2-(2-oxo-3-((2-(3-(pyridin-3-yl)ureido)ethyl)sulfonyl)imidazolidine-1-carboxamido)acetamido)-7-fluoro-2-hydroxy-3,4-dihydro-2H-benzo[e][1,2]oxaborinine-8-carboxylic acid] | < 10 | < 10 | 2 to 4 (≈ 2.56 to 5.12 µM) | 2 to 4 (≈ 2.56 to 5.12 µM) | 2 to 4 (≈ 2.56 to 5.12 µM) | 2 to 4 (≈ 2.56 to 5.12 µM) | 8 to 16 (≈ 10.2 to 20.5 µM) | < 1 | 2 to 4 (≈ 2.56 to 5.12 µM) | 2 to 4 (≈ 2.56 to 5.12 µM) | 2 to 4 (≈ 2.56 to 5.12 µM) | 16 to 32 (≈ 20.5 to 40.9 µM) | 16 to 32 (≈ 20.5 to 40.9 µM) | > 64 | 16 to 32 (≈ 20.5 to 40.9 µM)
O=C(NCCCS(=O)(=O)N1CCN(C(=O)NC(C(=O)N[C@H]2Cc3ccc(F)c(C(=O)O)c3OB2O)c2cc(F)c(O)c(O)c2Cl)C1=O)c1ccccc1 (stereo partly drawn) [Example 268, (3R)-3-(2-(3-((3-benzamidopropyl)sulfonyl)-2-oxoimidazolidine-1-carboxamido)-2-(2-chloro-5-fluoro-3,4-dihydroxyphenyl)acetamido)-7-fluoro-2-hydroxy-3,4-dihydro-2H-benzo[e][1,2]oxaborinine-8-carboxylic acid] | < 10 | < 10 | 8 to 16 (≈ 10.3 to 20.5 µM) | 8 to 16 (≈ 10.3 to 20.5 µM) | 2 to 4 (≈ 2.56 to 5.13 µM) | 32 to 64 (≈ 41 to 82.1 µM) | 8 to 16 (≈ 10.3 to 20.5 µM) | 2 to 4 (≈ 2.56 to 5.13 µM) | > 128 | > 128 | 8 to 16 (≈ 10.3 to 20.5 µM) | 16 to 32 (≈ 20.5 to 41 µM) | 16 to 32 (≈ 20.5 to 41 µM) | > 64 | 16 to 32 (≈ 20.5 to 41 µM)
O=C(NCCCS(=O)(=O)N1CCN(C(=O)NC(C(=O)N[C@H]2Cc3ccc(F)c(C(=O)O)c3OB2O)c2cc(F)c(O)c(O)c2Cl)C1=O)c1ccc(O)cc1 (stereo partly drawn) [Example 269, (3R)-3-(2-(2-chloro-5-fluoro-3,4-dihydroxyphenyl)-2-(3-((3-(4-hydroxybenzamido)propyl)sulfonyl)-2-oxoimidazolidine-1-carboxamido)acetamido)-7-fluoro-2-hydroxy-3,4-dihydro-2H-benzo[e][1,2]oxaborinine-8-carboxylic acid] | < 10 | < 10 | 2 to 4 (≈ 2.51 to 5.03 µM) | 2 to 4 (≈ 2.51 to 5.03 µM) | 2 to 4 (≈ 2.51 to 5.03 µM) | 8 to 16 (≈ 10.1 to 20.1 µM) | 8 to 16 (≈ 10.1 to 20.1 µM) | 32 to 64 (≈ 40.2 to 80.4 µM) | > 128 | > 128 | 8 to 16 (≈ 10.1 to 20.1 µM) | 16 to 32 (≈ 20.1 to 40.2 µM) | 16 to 32 (≈ 20.1 to 40.2 µM) | > 64 | 16 to 32 (≈ 20.1 to 40.2 µM)
O=C(NCCCS(=O)(=O)N1CCN(C(=O)N[C@H](C(=O)N[C@H]2Cc3ccc(F)c(C(=O)O)c3OB2O)c2cc(F)c(O)c(O)c2Cl)C1=O)c1cccc(O)c1 [Example 270, (R)-3-((S)-2-(2-chloro-5-fluoro-3,4-dihydroxyphenyl)-2-(3-((3-(3-hydroxybenzamido)propyl)sulfonyl)-2-oxoimidazolidine-1-carboxamido)acetamido)-7-fluoro-2-hydroxy-3,4-dihydro-2H-benzo[e][1,2]oxaborinine-8-carboxylic acid] | 50 to 250 | < 10 | 32 to 64 (≈ 40.2 to 80.4 µM) | > 128 | 32 to 64 (≈ 40.2 to 80.4 µM) | > 128 | 32 to 64 (≈ 40.2 to 80.4 µM) | 2 to 4 (≈ 2.51 to 5.03 µM) | > 128 | > 128 | > 128 | > 64 | > 64 | > 64 | > 64
O=C(NCCCS(=O)(=O)N1CCN(C(=O)N[C@@H](C(=O)N[C@H]2Cc3ccc(F)c(C(=O)O)c3OB2O)c2cc(F)c(O)c(O)c2Cl)C1=O)c1cccc(O)c1 [Example 271, (R)-3-((R)-2-(2-chloro-5-fluoro-3,4-dihydroxyphenyl)-2-(3-((3-(3-hydroxybenzamido)propyl)sulfonyl)-2-oxoimidazolidine-1-carboxamido)acetamido)-7-fluoro-2-hydroxy-3,4-dihydro-2H-benzo[e][1,2]oxaborinine-8-carboxylic acid] | < 10 | < 10 | 2 to 4 (≈ 2.51 to 5.03 µM) | 2 to 4 (≈ 2.51 to 5.03 µM) | 2 to 4 (≈ 2.51 to 5.03 µM) | > 128 | 2 to 4 (≈ 2.51 to 5.03 µM) | < 1 | 8 to 16 (≈ 10.1 to 20.1 µM) | 2 to 4 (≈ 2.51 to 5.03 µM) | 8 to 16 (≈ 10.1 to 20.1 µM) | 16 to 32 (≈ 20.1 to 40.2 µM) | 16 to 32 (≈ 20.1 to 40.2 µM) | > 64 | 16 to 32 (≈ 20.1 to 40.2 µM)
O=C(NCCCS(=O)(=O)N1CCN(C(=O)NC(C(=O)N[C@H]2Cc3ccc(F)c(C(=O)O)c3OB2O)c2cc(F)c(O)c(O)c2Cl)C1=O)c1ccncc1 (stereo partly drawn) [Example 272, (3R)-3-(2-(2-chloro-5-fluoro-3,4-dihydroxyphenyl)-2-(3-((3-(isonicotinamido)propyl)sulfonyl)-2-oxoimidazolidine-1-carboxamido)acetamido)-7-fluoro-2-hydroxy-3,4-dihydro-2H-benzo[e][1,2]oxaborinine-8-carboxylic acid] | < 10 | < 10 | 2 to 4 (≈ 2.56 to 5.12 µM) | 8 to 16 (≈ 10.2 to 20.5 µM) | 2 to 4 (≈ 2.56 to 5.12 µM) | > 128 | 8 to 16 (≈ 10.2 to 20.5 µM) | < 1 | 2 to 4 (≈ 2.56 to 5.12 µM) | 2 to 4 (≈ 2.56 to 5.12 µM) | 2 to 4 (≈ 2.56 to 5.12 µM) | 16 to 32 (≈ 20.5 to 41 µM) | 16 to 32 (≈ 20.5 to 41 µM) | > 64 | 16 to 32 (≈ 20.5 to 41 µM)
O=C(NCCCS(=O)(=O)N1CCN(C(=O)NC(C(=O)N[C@H]2Cc3ccc(F)c(C(=O)O)c3OB2O)c2cc(F)c(O)c(O)c2Cl)C1=O)c1cccnc1 (stereo partly drawn) [Example 273, (3R)-3-(2-(2-chloro-5-fluoro-3,4-dihydroxyphenyl)-2-(3-((3-(nicotinamido)propyl)sulfonyl)-2-oxoimidazolidine-1-carboxamido)acetamido)-7-fluoro-2-hydroxy-3,4-dihydro-2H-benzo[e][1,2]oxaborinine-8-carboxylic acid] | < 10 | < 10 | 2 to 4 (≈ 2.56 to 5.12 µM) | 2 to 4 (≈ 2.56 to 5.12 µM) | < 1 | 32 to 64 (≈ 41 to 82 µM) | 2 to 4 (≈ 2.56 to 5.12 µM) | < 1 | 2 to 4 (≈ 2.56 to 5.12 µM) | 2 to 4 (≈ 2.56 to 5.12 µM) | < 1 | 16 to 32 (≈ 20.5 to 41 µM) | 16 to 32 (≈ 20.5 to 41 µM) | > 64 | 16 to 32 (≈ 20.5 to 41 µM)
O=C(NCCCS(=O)(=O)N1CCN(C(=O)NC(C(=O)N[C@H]2Cc3ccc(F)c(C(=O)O)c3OB2O)c2cc(F)c(O)c(O)c2Cl)C1=O)c1nccs1 (stereo partly drawn) [Example 274, (3R)-3-(2-(2-chloro-5-fluoro-3,4-dihydroxyphenyl)-2-(2-oxo-3-((3-(thiazole-2-carboxamido)propyl)sulfonyl)imidazolidine-1-carboxamido)acetamido)-7-fluoro-2-hydroxy-3,4-dihydro-2H-benzo[e][1,2]oxaborinine-8-carboxylic acid] | < 10 | < 10 | 2 to 4 (≈ 2.54 to 5.08 µM) | 2 to 4 (≈ 2.54 to 5.08 µM) | 2 to 4 (≈ 2.54 to 5.08 µM) | > 128 | 8 to 16 (≈ 10.2 to 20.3 µM) | < 1 | > 128 | 2 to 4 (≈ 2.54 to 5.08 µM) | 2 to 4 (≈ 2.54 to 5.08 µM) | 16 to 32 (≈ 20.3 to 40.7 µM) | 16 to 32 (≈ 20.3 to 40.7 µM) | > 64 | 16 to 32 (≈ 20.3 to 40.7 µM)
